In patent US20200131177A1, “PESTICIDALLY ACTIVE HETEROCYCLIC DERIVATIVES WITH SULFUR CONTAINING SUBSTITUENTS” (SYNGENTA PARTICIPATIONS AG, priority 2017, published 2020):

Assays:
Format in all cases: in vivo
[1] = tested on: Myzus persicae (Green Peach Aphid); experiment: Example B5: Myzus persicae, sprayed sunflower leaf discs; conditions: foliar, 144 h, application rate of 200 ppm, aphid population of mixed ages, 6 days after infestation
Procedure: Example B5: Myzus persicae (Green Peach Aphid)
Sunflower leaf discs were placed onto agar in a 24-well microtiter plate and sprayed with aqueous test solutions prepared from 10′000 ppm DMSO stock solutions. After drying, the leaf discs were infested with an aphid population of mixed ages. The samples were assessed for mortality 6 days after infestation.

[2] = tested on: Myzus persicae (Green Peach Aphid); experiment: Example B6: Myzus persicae, roots of pea seedlings in test solution; conditions: 144 h, test rate of 24 ppm, aphid population of mixed ages, 6 days after placing seedlings into test solutions
Procedure: Example B6: Myzus persicae (Green Peach Aphid)
Roots of pea seedlings infested with an aphid population of mixed ages were placed directly into aqueous test solutions prepared from 10′000 DMSO stock solutions. The samples were assessed for mortality 6 days after placing seedlings into test solutions.

[3] = tested on: Plutella xylostella (Diamond Back Moth); experiment: Example B3: Plutella xylostella, treated artificial diet; conditions: 120 h, application rate of 200 ppm, L2 larvae, 5 days after infestation, read-out: effect in at least one of the two categories (mortality or growth inhibition)
Procedure: Example B3: Plutella xylostella (Diamond Back Moth)
(§1) 24-well microtiter plates with artificial diet were treated with aqueous test solutions prepared from 10′000 ppm DMSO stock solutions by pipetting. After drying, the plates were infested with L2 larvae (10 to 15 per well). The samples were assessed for mortality and growth inhibition in comparison to untreated samples 5 days after infestation.

[4] = tested on: Bemisia tabaci (Cotton White Fly); experiment: Example B8: Bemisia tabaci, sprayed cotton leaf discs; conditions: foliar, 144 h, application rate of 200 ppm, adult white flies, 6 days after incubation
Procedure: Example B8: Bemisia tabaci (Cotton White Fly)
Cotton leaf discs were placed on agar in 24-well microtiter plates and sprayed with aqueous test solutions prepared from 10′000 ppm DMSO stock solutions. After drying the leaf discs were infested with adult white flies. The samples were checked for mortality 6 days after incubation.

[5] = tested on: Diabrotica balteata (Corn Root Worm); experiment: Example B4: Diabrotica balteata, sprayed maize sprouts; conditions: 96 h, application rate of 200 ppm, L2 larvae, 4 days after infestation, read-out: effect in at least one of the two categories (mortality or growth inhibition)
Procedure: Example B4: Diabrotica balteata (Corn Root Worm)
as §1, with “Maize sprouts placed onto an agar layer in 24-well” for “24-well”, “plates” for “plates with artificial diet”, “spraying.” for “pipetting.”, “(6” for “(10”, “10” for “15”, “4” for “5”

[6] = tested on: Euschistus heros (Neotropical Brown Stink Bug); experiment: Example B9: Euschistus heros, sprayed soybean leaves; conditions: 120 h, application rate of 200 ppm, N2 nymphs, 5 days after infestation, read-out: effect in at least one of the two categories (mortality or growth inhibition)
Procedure: Example B9: Euschistus heros (Neotropical Brown Stink Bug)
Soybean leaves on agar in 24-well microtiter plates were sprayed with aqueous test solutions prepared from 10′000 ppm DMSO stock solutions. After drying the leaves were infested with N2 nymphs. The samples were assessed for mortality and growth inhibition in comparison to untreated samples 5 days after infestation.

[7] = tested on: Spodoptera littoralis (Egyptian Cotton Leaf Worm); experiment: Example B1: Spodoptera littoralis, sprayed cotton leaf discs; conditions: foliar, 72 h, application rate of 200 ppm, L1 larvae, 3 days after infestation, read-out: control (mortality, anti-feeding effect or growth inhibition)
Procedure: Example B1: Spodoptera littoralis (Egyptian Cotton Leaf Worm)
Cotton leaf discs were placed onto agar in 24-well microtiter plates and sprayed with aqueous test solutions prepared from 10′000 ppm DMSO stock solutions. After drying the leaf discs were infested with five L1 larvae. The samples were assessed for mortality, anti-feeding effect, and growth inhibition in comparison to untreated samples 3 days after infestation. Control of Spodoptera littoralis by a test sample is given when at least one of the categories mortality, anti-feedant effect, and growth inhibition is higher than the untreated sample.

[8] = tested on: Frankliniella occidentalis (Western Flower Thrips); experiment: Example B12: Frankliniella occidentalis, sprayed sunflower leaf discs; conditions: foliar, 168 h, application rate of 200 ppm, population of mixed ages, 7 days after infestation
Procedure: Example B12: Frankliniella occidentalis (Western Flower Thrips)
Sunflower leaf discs were placed on agar in 24-well microtiter plates and sprayed with aqueous test solutions prepared from […] stock solutions. After drying the leaf discs were infested with a Frankliniella population of mixed ages. The samples were assessed for mortality 7 days after infestation.

[9] = tested on: Tetranychus urticae (Two-Spotted Spider Mite); experiment: Example B10: Tetranychus urticae, sprayed bean leaf discs; conditions: foliar, 192 h
Procedure: Example B10: Tetranychus urticae (Two-Spotted Spider Mite)
Bean leaf discs on agar in 24-well microtiter plates were sprayed with aqueous test solutions prepared from 10′000 ppm DMSO stock solutions. After drying the leaf discs were infested with a mite population of mixed ages. The samples were assessed for mortality on mixed population (mobile stages) 8 days after infestation.

CCS(=O)(=O)c1cc(C(F)(F)F)cnc1-c1nc2cc(SC(F)F)ncc2n1C [Compound P3, 6-(difluoromethylsulfanyl)-2-[3-ethylsulfonyl-5-(trifluoromethyl)-2-pyridyl]-3-methyl-imidazo[4,5-c]pyridine]
≥ 80%: mortality at 200 ppm [1] | mortality at 24 ppm [2] | percent effect (mortality or growth inhibition) at 200 ppm [3] | mortality at 200 ppm [4] | percent effect (mortality or growth inhibition) at 200 ppm [5] | percent effect (mortality or growth inhibition) at 200 ppm [6] | percent control (mortality, anti-feedant effect or growth inhibition) at 200 ppm [7] | mortality at 200 ppm [8]

CCS(=O)(=O)c1cc(C(F)(F)F)cnc1-c1nc2cc(S(=O)(=O)C(F)F)ncc2n1C [Compound P1, 6-(difluoromethylsulfonyl)-2-[3-ethylsulfonyl-5-(trifluoromethyl)-2-pyridyl]-3-methyl-imidazo[4,5-c]pyridine]
≥ 80%: mortality at 200 ppm [1] | mortality at 24 ppm [2] | percent effect (mortality or growth inhibition) at 200 ppm [3] | mortality at 200 ppm [4] | percent effect (mortality or growth inhibition) at 200 ppm [5] | percent effect (mortality or growth inhibition) at 200 ppm [6] | percent control (mortality, anti-feedant effect or growth inhibition) at 200 ppm [7]

CCS(=O)(=O)c1cc(OC(C)C)cnc1-c1nc2cc(SC(F)F)ncc2n1C [Compound P12, 6-(difluoromethylsulfanyl)-2-(3-ethylsulfonyl-5-isopropoxy-2-pyridyl)-3-methyl-imidazo[4,5-c]pyridine]
≥ 80%: mortality at 200 ppm [1] | mortality at 24 ppm [2] | percent effect (mortality or growth inhibition) at 200 ppm [3] | percent effect (mortality or growth inhibition) at 200 ppm [5] | percent effect (mortality or growth inhibition) at 200 ppm [6] | percent control (mortality, anti-feedant effect or growth inhibition) at 200 ppm [7]

CCS(=O)(=O)c1ccc(-n2cncn2)nc1-c1nc2cc(S(=O)(=O)C(F)F)ncc2n1C [Compound P7, 6-(difluoromethylsulfonyl)-2-[3-ethylsulfonyl-6-(1,2,4-triazol-1-yl)-2-pyridyl]-3-methyl-imidazo[4,5-c]pyridine]
≥ 80%: mortality at 200 ppm [1] | mortality at 24 ppm [2] | percent effect (mortality or growth inhibition) at 200 ppm [5] | percent effect (mortality or growth inhibition) at 200 ppm [6]

CCS(=O)(=O)c1cc(C(F)(F)F)cnc1-c1nc2cc([S+]([O-])C(F)F)ncc2n1C (stereo not drawn) [Compound P2, 6-(difluoromethylsulfinyl)-2-[3-ethylsulfonyl-5-(trifluoromethyl)-2-pyridyl]-3-methyl-imidazo[4,5-c]pyridine]
≥ 80%: mortality at 200 ppm [1] | mortality at 24 ppm [2] | percent effect (mortality or growth inhibition) at 200 ppm [3] | mortality at 200 ppm [4] | percent effect (mortality or growth inhibition) at 200 ppm [5] | percent effect (mortality or growth inhibition) at 200 ppm [6] | percent control (mortality, anti-feedant effect or growth inhibition) at 200 ppm [7]

CCS(=O)(=O)c1cccnc1-c1nc2cc(SC(F)F)ncc2n1C [Compound P6, 6-(difluoromethylsulfanyl)-2-(3-ethylsulfonyl-2-pyridyl)-3-methyl-imidazo[4,5-c]pyridine]
≥ 80%: mortality at 200 ppm [1] | mortality at 24 ppm [2] | percent effect (mortality or growth inhibition) at 200 ppm [5] | percent effect (mortality or growth inhibition) at 200 ppm [6]

CCS(=O)(=O)c1cc(OC(C)C)cnc1-c1nc2cc(S(=O)(=O)C(F)F)ncc2n1C [Compound P10, 6-(difluoromethylsulfonyl)-2-(3-ethylsulfonyl-5-isopropoxy-2-pyridyl)-3-methyl-imidazo[4,5-c]pyridine]
≥ 80%: mortality at 200 ppm [1] | mortality at 24 ppm [2] | percent effect (mortality or growth inhibition) at 200 ppm [3] | mortality at 200 ppm [9] | percent effect (mortality or growth inhibition) at 200 ppm [6] | percent control (mortality, anti-feedant effect or growth inhibition) at 200 ppm [7]

CCS(=O)(=O)c1cc(OC(C)C)cnc1-c1nc2cc([S+]([O-])C(F)F)ncc2n1C (stereo not drawn) [Compound P11, 6-(difluoromethylsulfinyl)-2-(3-ethylsulfonyl-5-isopropoxy-2-pyridyl)-3-methyl-imidazo[4,5-c]pyridine]
≥ 80%: mortality at 200 ppm [1] | mortality at 24 ppm [2] | percent effect (mortality or growth inhibition) at 200 ppm [3] | mortality at 200 ppm [9] | percent effect (mortality or growth inhibition) at 200 ppm [6] | percent control (mortality, anti-feedant effect or growth inhibition) at 200 ppm [7]

CCS(=O)(=O)c1ccc(-n2cncn2)nc1-c1nc2cc([S+]([O-])C(F)F)ncc2n1C (stereo not drawn) [Compound P8, 6-(difluoromethylsulfinyl)-2-[3-ethylsulfonyl-6-(1,2,4-triazol-1-yl)-2-pyridyl]-3-methyl-imidazo[4,5-c]pyridine]
≥ 80%: mortality at 200 ppm [1] | mortality at 24 ppm [2] | mortality at 200 ppm [4] | percent effect (mortality or growth inhibition) at 200 ppm [5] | percent effect (mortality or growth inhibition) at 200 ppm [6]

CCS(=O)(=O)c1cccnc1-c1nc2cc([S+]([O-])C(F)F)ncc2n1C (stereo not drawn) [Compound P4]
≥ 80%: mortality at 200 ppm [1] | mortality at 24 ppm [2] | percent effect (mortality or growth inhibition) at 200 ppm [5] | percent effect (mortality or growth inhibition) at 200 ppm [6]

CCS(=O)(=O)c1ccc(-n2cncn2)nc1-c1nc2cc(SC(F)F)ncc2n1C [Compound P9, 6-(difluoromethylsulfanyl)-2-[3-ethylsulfonyl-6-(1,2,4-triazol-1-yl)-2-pyridyl]-3-methyl-imidazo[4,5-c]pyridine]
≥ 80%: mortality at 200 ppm [1] | mortality at 24 ppm [2] | mortality at 200 ppm [4] | percent effect (mortality or growth inhibition) at 200 ppm [5] | percent effect (mortality or growth inhibition) at 200 ppm [6] | percent control (mortality, anti-feedant effect or growth inhibition) at 200 ppm [7]
